By melting point is commonly meant the temperature of the solid-liquid transition.

Data on 25 compounds can be found in patent US6759408B2 (Wyeth, priority 1999, dated 2004).

The test system of one series is rat uterine decidualization. Kind of series: Rat decidualization assay. It is filed as in vivo. The settings on record: read-out: CV-1 IC50 (mg/kg): Percentage inhibition at the dose specified. How it is done:
1. Rat Decidualization Assay
b. Animals (RACUC Protocol #5002)
The animals are treated once daily for seven days.
Uteri are removed and trimmed of fat.
Body weight: Mean total animal body weight (default-kg)
Decidual response: [(D-C)/C]×100%
`N#Cc1ccc(-c2ccc3c(c2)C2(CCCCC2)OC(=O)N3)s1` [Compound 11, 5-(1,2-Dihydro-2-oxospiro[4H-3,1-benzoxazine-4,1-cyclohexan]-6-yl)-2-thiophenecarbonitrile]: the inhibition in vivo at 10 mg/kg is 50%.
On to `Cc1cc(C#N)sc1-c1ccc2c(c1)C1(CCCCC1)OC(=O)N2` [Compound 10, 5-(1,2-Dihydro-2-oxospiro[4H-3,1-benzoxazine-4,1-cyclohexan]-6-yl)-4-methyl-2-thiophenecarbonitrile], for which the inhibition in vivo at 10 mg/kg was 50%.

Tested on in another series: not given
Assay: not given
Settings: not given
Compound `CC1(C)OC(=O)Nc2ccc(-c3cccc(C#N)c3)cc21` [Example 12, 3-(4,4-Dimethyl-2-oxo-1,4-dihydro-2H-benzo[d][1,3]oxazin-6-yl)-benzonitrile] returned a melting point of 236 to 237 °C.
With `CCC1(CC)OC(=O)Nc2ccc(-c3cccc(Cl)c3)cc21` [Example 25, 6-(3-Chlorophenyl)-4,4-diethyl-1,4-dihydrobenzo[d][1,3]oxazin-2-one], the melting point was in the range of 150 to 151 °C.
With `CC1(C)OC(=O)Nc2ccc(-c3cccc(C#CC#N)c3)cc21` [Example 75, 3-[3-(4,4-Dimethyl-2-oxo-1,4-dihydro-2H-benzo[d][1,3]oxazin-6-yl)-phenyl]-propynenitrile], the melting point lay within 212 to 213 °C.
Same read-out and setting: next, `CC1(C)OC(=O)Nc2ccc(-c3cccc(Cl)c3)cc21` [Example 5, 6-(3-Chlorophenyl)-4,4-dimethyl-1,4-dihydrobenzo[d][1,3]oxazin-2-one]: 158 to 159 °C; `CC1(C)OC(=O)Nc2ccc(-c3coc(C=NO)c3)cc21` [Example 145, 4-(1,4-Dihydro-4,4-dimethyl-2-oxo-2H-3,1-benzoxazin-6-yl)-2-furancarboxaldehyde oxime]: 236 to 238 °C.
`Cc1cc(C#N)cc(-c2ccc3c(c2)C(C)(C)OC(=O)N3)c1` [Example 58, 3-(4,4-Dimethyl-2-oxo-1,4-dihydro-2H-benzo[d][1,3]oxazin-6-yl)-5-methyl-benzonitrile] returned a melting point of 256 to 258 °C.
As for `CC1(C)OC(=O)Nc2ccc(-c3cc(F)cc(-c4ccsc4)c3)cc21` [Example 93, 6-(3-Fluoro-5-thiophen-3-yl-phenyl)-4,4-dimethyl-1,4-dihydro-benzo[d][1,3]oxazin-2-one], the melting point was in the range of 200 to 203 °C.
Consider `O=C1Nc2ccc(-c3cc(F)cc(Br)c3)cc2C(C2CC2)(C2CC2)O1` [Example 54, 6-(3-Bromo-5-fluoro-phenyl)-4,4-dicyclopropyl-1,4-dihydrobenzo-[d][1,3]oxazin-2-one], for which the melting point was 228 to 229 °C.
On to `CC1(C)OC(=O)Nc2ccc(-c3cccc(S(N)(=O)=O)c3)cc21` [Example 140, 3-(4,4-Dimethyl-2-oxo-1,4-dihydro-2H-benzo[d][1,3]-oxazin-6-yl)benzenesulfonamide], for which the melting point is 242 to 244 °C (dec.).
In turn, `Cc1cc(Br)cc(-c2ccc3c(c2)C(C)(C)OC(=O)N3)c1` [Example 56, 6-(3-Bromo-5-methyl-phenyl)-4,4-dimethyl-1,4-dihydrobenzo-[d][1,3]oxazin-2-one] gave a melting point of 231 to 233 °C.
Take `O=C1Nc2ccc(-c3cccc(Cl)c3)cc2C(C2CC2)(C2CC2)O1` [Example 43, 6-(3-Chloro-phenyl)-4,4-dicyclopropyl-1,4-dihydro-benzo[d][1,3]oxazin-2-one]: the melting point was 198 to 200 °C.
In turn, `Cc1cc(C#N)sc1-c1ccc2c(c1)C(C)(C)OC(=O)N2` [Compound 18, 5-(4,4-Dimethyl-2-oxo-1,4-dihydro-2H-benzo[d][1,3]oxazin-6-yl)-4-methyl-thiophene-2-carbonitrile] registered a melting point of 195 to 200 °C.
On the same count and under the same terms, the same measure for `CC1(C)OC(=O)Nc2ccc(-c3ccc([N+](=O)[O-])[nH]3)cc21` [Example 96, 4,4-Dimethyl-6-(5-nitro-1H-pyrrol-2-yl)-1,4-dihydrobenzo[d][1,3]oxazin-2-one]: 265 °C (dec.); for `CC1(C)OC(=O)Nc2ccc(-c3csc(C#N)c3)cc21` [Compound 17, 4-(4,4-Dimethyl-2-oxo-1,4-dihydro-2H-benzo[d][1,3]oxazin-6-yl)-thiophene-2-carbonitrile]: 230 to 231 °C (dec.); for `CC1(C)OC(=O)Nc2ccc(-c3cncc(C#N)c3)cc21` [Example 16, 5-(4,4-Dimethyl-2-oxo-1,4-dihydro-2H-benzo[d][1,3]oxazin-6-yl)-nicotinonitrile]: 290 to 291 °C.
Still for that read-out and setting: next, `C#CC1(C)OC(=O)Nc2ccc(-c3cccc(Cl)c3)cc21` (centres unmarked) [Example 38, 6-(3-Chlorophenyl)-4-ethynyl-4-methyl-1,4-dihydro-benzo[d][1,3]oxazin-2-one]: 185 to 186 °C; `COc1cccc(-c2ccc3c(c2)C(C)(C(F)(F)F)OC(=O)N3)c1` (centres unmarked) [Example 48, 6-(3-Methoxyphenyl)-4-methyl-4-trifluoromethyl-1,4-dihydro-benzo[d][1,3]oxazin-2-one]: 178 to 179 °C; `CC1(C)OC(=O)Nc2ccc(-c3coc(C#N)c3)cc21` [Example 23, 4-(4,4-Dimethyl-2-oxo-1,4-dihydro-2H-benzo[d][1,3]oxazin-6-yl)-furan-2-carbonitrile]: 255 to 256 °C.
As for `CC(C)(C)OC(=O)n1cccc1-c1ccc2c(c1)C(C)(C)OC(=O)N2` [Example 94, 2-(4,4-Dimethyl-2-oxo-1,4dihydro-2H-benzo[d][1,3]oxazin-6-yl)-pyrrole-1-carboxylic acid tert-butyl ester], the melting point was determined as 176 °C.
With `CC#CC1(C)OC(=O)Nc2ccc(-c3cccc(Cl)c3)cc21` (centres unmarked) [Example 37, 6-(3-Chlorophenyl)-4-methyl-4-propyn-1-yl-1,4-dihydro-benzo[d][1,3]oxazin-2-one], the melting point fell in the range of 184 to 185 °C.
The same measure, in the same setting: next, `CCC1(CC)OC(=O)Nc2ccc(-c3cccc([N+](=O)[O-])c3)cc21` [Example 24, 4,4-Diethyl-6-(3-nitrophenyl)-1,4-dihydrobenzo[d][1,3]oxazin-2-one]: 193 to 194 °C.
Regarding `Cc1cc(C#N)sc1-c1ccc2c(c1)C1(CCCCC1)OC(=O)N2` [Compound 10, 5-(1,2-Dihydro-2-oxospiro[4H-3,1-benzoxazine-4,1-cyclohexan]-6-yl)-4-methyl-2-thiophenecarbonitrile], the melting point was in the range of 200 to 203 °C.
On the same count and under the same terms, the same measure for `CC1(C)OC(=O)Nc2ccc(-c3cc(C#N)cc(C#N)c3)cc21` [Example 80, 5-(4,4-Dimethyl-2-oxo-1,4-dihydro-2H-benzo[d][1,3]oxazin-6-yl)-isophthalonitrile]: 288 to 289 °C; for `CC1(C)OC(=O)Nc2ccc(-c3sccc3C#N)cc21` [Example 91, 2-(4,4-Dimethyl-2-oxo-1,4-dihydro-2H-benzo[d][1,3]oxazin-6-yl)-thiophene-3-carbonitrile]: 200 to 202 °C.
